Results taken from BigSolDB 2.1.

O=C(O)CCCCCC(=O)O
solubility (mole fraction)
Settings | 288.15 K | 293.15 K | 298.15 K | 303.15 K | 308.15 K | 315.15 K | 318.15 K | 323.15 K
in acetic acid | 0.0648 | 0.0794 | 0.0964 | 0.119 | 0.14 | 0.169 | 0.199 | 0.232
in acetone | 0.0546 | 0.0752 | 0.118 | 0.146 | 0.174 | 0.202 | 0.224 | 0.246
in ethanol | 0.0677 | 0.0851 | 0.104 | 0.126 | 0.15 | 0.178 | 0.204 | 0.237
in ethyl acetate | 0.0233 | 0.0321 | 0.0517 | 0.0718 | 0.0802 | 0.0904 | 0.102 | 0.128

O=C(O)CCCC(=O)O
solubility (mole fraction)
Settings | 288.15 K | 293.15 K | 298.15 K | 303.15 K | 308.15 K | 315.15 K | 318.15 K | 323.15 K
in acetic acid | 0.173 | 0.196 | 0.221 | 0.241 | 0.276 | 0.31 | 0.341 | 0.385
in acetone | 0.183 | 0.207 | 0.237 | 0.264 | 0.329 | 0.324 | 0.375 | 0.417
in ethanol | 0.136 | 0.158 | 0.176 | 0.201 | 0.228 | 0.274 | 0.322 | 0.35
in ethyl acetate | 0.0861 | 0.105 | 0.123 | 0.133 | 0.146 | 0.176 | 0.227 | 0.307

O=C(O)CCCCCCCC(=O)O
solubility (mole fraction)
Settings | 288.15 K | 293.15 K | 298.15 K | 303.15 K | 308.15 K | 315.15 K | 318.15 K | 323.15 K
in acetic acid | 0.0333 | 0.04 | 0.0524 | 0.0631 | 0.0761 | 0.0923 | 0.111 | 0.133
in acetone | 0.029 | 0.0331 | 0.04 | 0.0494 | 0.0634 | 0.0806 | 0.103 | 0.143
in ethanol | 0.0534 | 0.0601 | 0.0707 | 0.0851 | 0.102 | 0.124 | 0.15 | 0.185
in ethyl acetate | 0.00911 | 0.0113 | 0.0162 | 0.0232 | 0.0326 | 0.0524 | 0.0663 | 0.0964

O=C(O)CCCCCCC(=O)O
solubility (mole fraction)
Settings | 288.15 K | 293.15 K | 298.15 K | 303.15 K | 308.15 K | 315.15 K | 318.15 K | 323.15 K
in acetic acid | 0.0115 | 0.0145 | 0.0176 | 0.0216 | 0.0264 | 0.0329 | 0.0405 | 0.0501
in acetone | 0.0092 | 0.0127 | 0.0167 | 0.021 | 0.025 | 0.0301 | 0.0356 | 0.0405
in ethanol | 0.0208 | 0.0253 | 0.031 | 0.0375 | 0.0454 | 0.0553 | 0.0683 | 0.0847
in ethyl acetate | 0.00238 | 0.00302 | 0.00389 | 0.00513 | 0.00641 | 0.00819 | 0.00978 | 0.0118
